The values below come from patent publication US20090069740A1, “PROTECTED DONOR ELECTRODES FOR ELECTRO-TRANSPORT DRUG DELIVERY” (POLYPLUS BATTERY COMPANY, priority 2007, published 2009).

This data set in a line: In vitro Li delivery through pig skin in a flow-through Li-AgCl cell (protected Li metal foil donor electrode). The class given is in vitro ADME. The following applies: ICP-MS. How it is done:
The glass receptor compartment was similar to one described by Phipps et al. (1988) Solid-state Ionics 28-30: 1778-1783, for ionophoretic drug delivery experiments. The receptor compartment was filled with RPMI-1640 Medium (Sigma Aldrich). The antibiotic gentamicin sulphate was added to the receptor compartment fluid to inhibit bacterial growth.
The prepared skin was stored in RPMI-1640 medium overnight before the start of the experiment. The skin was placed on the receptor chamber and kept in place and stretched out with an O-ring around the neck of the chamber. The visceral surface of the skin was in contact with the receptor fluid.
A square 1 cm×1 cm silver chloride cathode with a capacity of approximately 40 mAh was introduced into the receptor chamber through a port. A multi-channel peristaltic pump was used to create a flow of the RPMI-1640 medium through receptor compartments of several cells. […]
The donor-acceptor chamber assembly was kept in place using a clamp. […] Li content in the fluid samples taken from receptor compartment was analyzed by ICP-MS.
Over the duration of the experiment (27 hrs at a current density of 0.1 mA/cm^2 and 24 hrs at a current density of 0.2 mA/cm^2), receptor fluid samples were taken and analyzed.
The rate of Li delivery into the receptor compartment was calculated as a product of Li concentration and the flow rate of the receptor fluid.

Consider `[Li+]` [Li, lithium], for which, where the note is “before current passing”, the “initial Li content of receptor solution” value was at most 6 µg/L. Further, the “Li content in receptor fluid samples” value (constant current 0.1 mA/cm^2 (27 hrs) and 0.2 mA/cm^2 (24 hrs), 37° C, RPMI-1640 receptor fluid, flow rate 2.1 mL/hr, FIG. 9) was “gradually increased over time and was significantly larger for the rate of 0.2 mA/cm^2 than for 0.1 mA/cm^2”.
